Test results taken from US20110039714A1, “Probes, Systems, and Methods for Drug Discovery” (priority 2001, published 2011).

Biological target: T1, thrombin (Bos taurus, UniProt P00735)
T1 construct: purchased Sigma T-3399
Assay: biological assay for thrombin inhibitory activity (fluorogenic substrate)
Assay type: biochemical
Details: for inhibition at 50 µM: test probe concentration 50 μM; for inhibition at 100 µM: test probe concentration 100 μM
Experimental: The biological assay (28320) for thrombin inhibitory activity is detailed below. To Nunc 96-well black fluorescence plate wells is added 70 microliters of assay buffer, followed by 10 microliters of 1 millimolar substrate solution. Test probe (10 microliters in 30% DMSO) is then added to wells according to the desired concentrations for the assay. The mixture is incubated at 37° C. for 5 minutes, followed by addition of 10 microliters of thrombin (100 micrograms/mL in assay buffer), to make a final assay volume of 100 microliters. The plate is mixed gently and incubated 15 minutes at 37° C. Stop buffer (100 microliters) is added, and the plate is read by detecting emission at 460 nm. Percent inhibition of test compound is calculated by comparison with control wells. “Assay buffer” is composed of 100 mM KH2PO4, 100 mM Na2HPO4, 1 mM EDTA, 0.01% BRIJ-35, and 1 mM dithiothreitol (added fresh on the day assay is preformed). “Stop buffer” is composed of 100 mM Na—O(O)CCH2Cl and 30 mM sodium acetate which is brought to pH 2.5 with glacial acetic acid. Thrombin was purchased from Sigma (cat #T-3399). Thrombin substrate III fluorogenic was purchased from ICN (cat #195915). Sodium acetate, dithiothreitol, and Brij-35 were purchased from Sigma. Sodium monochloroacetate was purchased from Lancaster 223-498-3. Glacial acetic acid was purchased from Alfa Aesar (cat #33252). Thrombin was stored at −20° C. Thrombin substrate fluorogenic was stored at −20° C. (5 mM in DMSO).
Results are expressed as percentage inhibition at a given test probe concentration in the Table below;

## COc1ccc(CNC(=O)c2cc(Cl)ccc2NC(=O)c2n[nH]c3ccccc23)cc1OC [Example B1]
  inhibition at 50 µM: 10 to 39%
  inhibition at 100 µM: 40 to 74%

## C[C@@H](NC(=O)C(NC(=O)c1n[nH]c2ccccc12)C1CCNCC1)c1ccccc1 (stereo partly drawn) [Example B3]
  inhibition at 50 µM: 10 to 39%
  inhibition at 100 µM: 40 to 74%

## CCCCN(CCCC)CCCNC(=O)c1cc(Cl)ccc1NC(=O)c1n[nH]c2ccccc12 [Example B2]
  inhibition at 50 µM: 10 to 39%
  inhibition at 100 µM: 40 to 74%
